In patent US20260022142A1, “MACROCYCLIC IMMUNOMODULATORS” (Bristol-Myers Squibb Company, priority 2022, published 2026):
Bridge positions count the residues as written; N and C are the ends. Square brackets hold non-standard residues; d marks the D form. Peptide text beside a SMILES is read from it. * marks the point of attachment. ξ: configuration not given here. Bip = N[C@@H](Cc1ccc(-c2ccccc2)cc1)C(=O)O; Phe(3-Me) = Cc1cccc(C[C@H](N)C(=O)O)c1; NH(CH2)12COOH = O=C(O)CCCCCCCCCCCCN*; Val(3-OH) = CC(C)(O)[C@H](N)C(=O)O; ξVal(3-OH) = CC(C)(O)C(N)C(=O)O; Cha = N[C@@H](CC1CCCCC1)C(=O)O; Carboxymethyl = O=C(O)C*; Orn = NCCC[C@H](N)C(=O)O; Aun = NCCCCCCCCCCC(=O)O; Dab = NCC[C@H](N)C(=O)O; Nva = CCC[C@H](N)C(=O)O; Dap = NC[C@H](N)C(=O)O; AEEA = NCCOCCOCC(=O)O

Molecular target: T1, PD-1/PD-L1 interaction (PE-labeled human PD-L1-Ig binding to Jurkat cell line over-expressing human PD-1) (Homo sapiens, UniProt Q15116)
T1 construct: expressed in transfected cells; host or cells: Jurkat
Experiment: Jurkat-PD-1 Cell Binding High-Content Screening Assay (CBA)
Type: cell-based
Conditions: Jurkat cell line over-expressing human PD-1; PE-labeled PD-L1-Ig 20 nM final; read-out: Jurkat hPD1-PDL1 IC50
How it was run: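 Jurkat cells stably over-expressing human PD-1 were seeded in DMEM with 10% fetal calf serum and pre-incubated with compound for 2 h at 37° C. PE-labeled human PD-L1-Ig was then added at 20 nM final for 1 hour, after which cells were fixed with paraformaldehyde, Hoechst-stained and imaged by high-content microscopy.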

T1 sequence (Q15116 25-288): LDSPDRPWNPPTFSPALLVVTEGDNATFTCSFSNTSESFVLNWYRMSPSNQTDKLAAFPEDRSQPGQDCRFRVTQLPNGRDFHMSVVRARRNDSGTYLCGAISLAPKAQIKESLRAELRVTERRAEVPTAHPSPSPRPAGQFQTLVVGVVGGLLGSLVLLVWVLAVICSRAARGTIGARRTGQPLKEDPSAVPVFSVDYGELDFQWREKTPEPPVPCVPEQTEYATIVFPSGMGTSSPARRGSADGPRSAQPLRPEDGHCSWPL

SMILES | IC50 [nM]
Cc1cccc(C[C@@H]2NC(=O)[C@H](CC(=O)O)NC(=O)[C@H](Cc3ccc(OCC(=O)O)cc3)NC(=O)[C@H](CN)NC(=O)CSC[C@@H](C(=O)N[C@@H](CCN)C(=O)NCCCCCCCCCCC(=O)O)NC(=O)[C@H]([C@@H](C)O)NC(=O)[C@H](C(C)C)NC(=O)[C@H](CC3CCCCC3)NC(=O)[C@H](CCN)NC(=O)[C@@H](CC(C)C)NC(=O)[C@H](CCCN)NC(=O)[C@H](CCC(N)=O)NC(=O)[C@H](Cc3ccc(-c4ccccc4)cc3)NC(=O)[C@H](C(C)C)NC2=O)c1 [Compound 2847] ({CH2CO}-[Dap]Y(Carboxymethyl)D[Phe(3-Me)]V[Bip]Q[Orn][dL][Dab][Cha]VTC[Dab][Aun]-OH; thioether N-14) | 20.5
Cc1cccc(C[C@@H]2NC(=O)[C@H](CC(=O)O)NC(=O)[C@H](Cc3ccc(O)cc3)NC(=O)[C@H]([C@@H](C)O)NC(=O)CSC[C@@H](C(=O)N[C@@H](CCN)C(=O)NCCOCCOCC(=O)NCCCCCCCCCCCCC(=O)O)NC(=O)[C@H](CO)NC(=O)[C@H](C(C)(C)O)NC(=O)[C@H](CC3CCCCC3)NC(=O)[C@H](CCN)NC(=O)[C@@H](CC(C)C)NC(=O)[C@H](CCCN)NC(=O)[C@H](Cc3ccc(OCC(=O)O)cc3)NC(=O)[C@H](Cc3ccc(-c4ccccc4)cc3)NC(=O)[C@H](Cc3ccc(OCC(=O)O)cc3)NC2=O)c1 [Compound 2250] ({CH2CO}-TYD[Phe(3-Me)]Y(Carboxymethyl)[Bip]Y(Carboxymethyl)[Orn][dL][Dab][Cha][Val(3-OH)]SC[Dab][AEEA]-{NH(CH2)12COOH}; thioether N-14) | 18
Cc1cccc(C[C@@H]2NC(=O)[C@H](CC(=O)O)NC(=O)[C@H](Cc3ccc(OCC(=O)O)cc3)NC(=O)[C@H](CN)NC(=O)CSC[C@@H](C(=O)N[C@@H](CCN)C(=O)NCCCCCCCCCCC(=O)O)NC(=O)[C@@H](CCC(N)=O)NC(=O)[C@H](C(C)C)NC(=O)[C@H](CC3CCCCC3)NC(=O)[C@H](CCN)NC(=O)[C@@H](CC(C)C)NC(=O)[C@H](CCCN)NC(=O)[C@H](Cc3ccc(O)cc3)NC(=O)[C@H](Cc3ccc(-c4ccccc4)cc3)NC(=O)[C@H](CC(C)C)NC2=O)c1 [Compound 2769] ({CH2CO}-[Dap]Y(Carboxymethyl)D[Phe(3-Me)]L[Bip]Y[Orn][dL][Dab][Cha]V[dQ]C[Dab][Aun]-OH; thioether N-14) | 60.7

Now those with a lower IC50, led by results:

IC50 [nM] | SMILES
13.5 | CCC[C@@H]1NC(=O)CSC[C@@H](C(=O)N[C@@H](CCN)C(=O)NCCOCCOCC(=O)NCCCCCCCCCCCCC(=O)O)NC(=O)[C@H](CO)NC(=O)C(C(C)(C)O)NC(=O)[C@H](CC2CCCCC2)NC(=O)[C@H](CCN)NC(=O)[C@@H](CC(C)C)NC(=O)[C@H](CCCN)NC(=O)[C@H](Cc2ccc(OCC(=O)O)cc2)NC(=O)[C@H](Cc2ccc(-c3ccccc3)cc2)NC(=O)[C@H](Cc2ccc(OCC(=O)O)cc2)NC(=O)[C@H](Cc2cccc(C)c2)NC(=O)[C@H](CC(=O)O)NC(=O)[C@H](Cc2ccc(OCC(=O)O)cc2)NC1=O (stereo partly drawn) [Compound 2252] ({CH2CO}-[Nva]Y(Carboxymethyl)D[Phe(3-Me)]Y(Carboxymethyl)[Bip]Y(Carboxymethyl)[Orn][dL][Dab][Cha][ξVal(3-OH)]SC[Dab][AEEA]-{NH(CH2)12COOH}; thioether N-14)
11.3 | CC(C)C[C@H]1NC(=O)[C@H](CCCN)NC(=O)[C@H](C(C)C)NC(=O)[C@H](Cc2ccc(-c3ccccc3)cc2)NC(=O)[C@H](C(C)C)NC(=O)[C@H](Cc2c[nH]c3ccccc23)NC(=O)[C@H](CC(=O)O)NC(=O)[C@H](Cc2ccc(OCC(=O)O)cc2)NC(=O)[C@H](Cc2ccc(OCC(=O)O)cc2)NC(=O)CSC[C@@H](C(=O)N[C@@H](CCN)C(=O)NCCOCCOCC(=O)NCCCCCCCCCCC(=O)O)NC(=O)[C@H](CCCN)NC(=O)[C@H](C(C)C)NC(=O)[C@H](CC2CCCCC2)NC(=O)[C@H](CCN)NC1=O [Compound 2553] ({CH2CO}-Y(Carboxymethyl)Y(Carboxymethyl)DWV[Bip]V[Orn][dL][Dab][Cha]V[Orn]C[Dab][AEEA][Aun]-OH; thioether N-14)
